The term EC50 denotes the midpoint of the concentration-response curve. Usually bioavailability stands for the share of a dose that reaches the circulation, judged against a reference dose that is usually intravenous. High values mean much systemic uptake, low ones little systemic uptake.

Experimental findings from US20050239832A1, “Methods of treatment of amyloidosis using bi-cyclic aspartyl protease inhibitors” (priority 2004, published 2005) are described below.

Data set [1] concerns A-beta. In words: Efficacy of compounds to inhibit A-beta concentration (% inhibition vs vehicle control). Format: in vivo, rat. The protocol: Efficacious compounds of the present invention are those able to decrease the amount of A-beta produced compared to a control, where beta-secretase mediated cleavage is observed and measured in the absence of the compounds. Detection of efficacy can be by analysis of A-beta levels, for example, by immunoassay, fluorometric or chromogenic assay, HPLC, or other means of detection. The efficacy of the compounds of formula (I) was determined as a percentage inhibition corresponding to A-beta concentrations for tissue treated and untreated with a compound of formula (I).
The invention encompasses compounds of formula (I) that are efficacious. Efficacy is calculated as a percentage of concentrations as follows: Efficacy=(1−(total A-beta in dose group/total A-beta in vehicle control))*100% wherein the “total A-beta in dose group” equals the concentration of A-beta in the tissue, (e.g., rat brain) treated with the compound, and the “total A-beta in vehicle control” equals the concentration of A-beta in the tissue, yielding a % inhibition of A-beta production. Statistical significance is determined by p-value<0.05 using the Mann Whitney t-test. See, for example, Dovey et al., J. Neurochemistry, 2001, 76:173-181. […]

In data set [2] the target is BACE (Homo sapiens, UniProt P56817). Briefly: BACE EC50 (enzyme inhibition, Table on oral bioavailability). It is filed as biochemical.
For data set [3], the system named is HEKp293 cells transfected with APP751 containing the Swedish mutation (A-beta). Briefly: cells. Format: cell-based. To be noted: Homo sapiens, read-out: Cell EC50 (nM). The source says:
An exemplary assay for the analysis of inhibition of beta-secretase activity utilizes the human embryonic kidney cell line HEKp293 (ATCC Accession No. CRL-1573) transfected with APP751 containing the naturally occurring double mutation Lys651Met652 to Asn651Leu652 (numbered for APP751), commonly called the Swedish mutation and shown to overproduce A-beta (Citron et al., 1992, Nature, 360:672-674), as described in U.S. Pat. No. 5,604,102.
At the end of the treatment period, conditioned media is analyzed for beta-secretase activity, for example, by analysis of cleavage fragments. A-beta can be analyzed by immunoassay, using specific detection antibodies.

Data set [4] is described as follows: Oral bioavailability in the male Sprague-Dawley rat (IV and PO). It is filed as in vivo. Particulars: plasma, 10 mg/kg. As for the experimental part:
The invention encompasses compounds of formula (I) that are orally bioavailable. Generally, oral bioavailability is defined as the fraction of orally administered dose reaching systemic circulation. Oral bioavailability can be determined following both an intravenous (IV) and oral (PO) administration of a test compound.
Oral bioavailability was determined in the male Sprague-Dawley rat following both IV and PO administration of test compound. Two month-old male rats (250-300 g) were surgically implanted with polyethylene (PE-50) cannula in the jugular vein while under isoflurane anesthesia the day before the in-life phase. Animals were fasted overnight with water ad libitum, then dosed the next day. The dosing regime. consisted of either a 5 mg/kg (2.5 mL/kg) IV dose (N=3) administered to the jugular vein cannula, then flushed with saline, or a 10 mg/kg (5 mL/kg) PO dose (N=3) by esophageal gavage. Compounds were formulated with 10% Solutol in 5% dextrose at 2 mg/mL. Subsequent to dosing, blood was collected at 0.016 (IV only), 0.083, 0.25, 0.5, 1, 3, 6, 9, and 24 h post administration, and heparinized plasma was recovered following centrifugation.
Compounds were extracted from samples following precipitation of the plasma proteins by methanol. The resulting supernatants were evaporated to dryness and reconstituted with chromatographic mobile phase (35% acetonitrile in 0.1% formic acid) and injected onto a reverse phase C18 column (2×50 mm, 5 μm, BDS Hypersil). Detection was facilitated with a multi-reaction-monitoring experiment on a tandem triple quadrupole mass spectrometer (LC/MS/MS) following electrospray ionization. Experimental samples were compared to calibration curves prepared in parallel with aged match rat plasma and quantitated with a weighted 1/x linear regression. The lower limit of quantization (LOQ) for the assay was typically 0.5 ng/mL.
Oral bioavailability (% F) is calculated from the dose normalized ratio of plasma exposure following oral administration to the intravenous plasma exposure in the rat by the following equation % F=(AUCpo/AUCiv)×(Div/Dpo)×100% where D is the dose and AUC is the area-under-the-plasma-concentration-time-curve from 0 to 24 h. AUC is calculated from the linear trapezoidal rule by AUC=((C2+C1)/2)×(T2−T1) where C is concentration and T is time.
Pharmacokinetic parameters were calculated by a non-compartmental approach. See, for example, Gibaldi, M. and Perrier, D., Pharmacokinetics, Second Edition, 1982, Marcel Dekker Inc., New York, N.Y., pp 409-418.

A short description of data set [5]: in vivo. To be noted: CF-1, mouse, iv. As for the experimental part:
The following assay was employed to determine the brain penetration of compounds encompassed by the present invention.
In-life phase: Test compounds were administered to CF-1 (20-30 g) mice at 10 μmol/kg (4 to 7 mg/kg) following IV administration in the tail vein. Two time-points, 5 and 60 min, were collected post dose. Four mice were harvested for heparinized plasma and non-perfused brains at each time-point for a total of 8 mice per compound.
Analytical phase: Samples were extracted and evaporated to dryness, then reconstituted and injected onto a reverse phase chromatographic column while monitoring the effluent with a triple quadrupole mass spectrometer. Quantitation was then performed with a 1/x^2 weighted fit of the least-squares regression from calibration standards prepared in parallel with the in vivo samples. The LOQ is generally 1 ng/mL and 0.5 ng/g for the plasma and brain respectively. Data was reported in micromolar (μM) units. Brain levels were corrected for plasma volumes (16 μL/g).

The subject of data set [6] is catD versus beta-secretase (BACE). Briefly: Selectivity for inhibiting BACE over aspartyl protease catD (ratio of IC50 values). It is filed as biochemical. To be noted: average of four experimental runs. The protocol:
Investigation of potential beta-secretase inhibitors produced compounds with increased selectivity for beta-secretase over other aspartyl proteases such as cathepsin D (catD), cathepsin E (catE), HIV protease, and renin. Selectivity was calculated as a ratio of inhibition (IC50) values in which the inhibition of beta-secretase was compared to the inhibition of other aspartyl proteases. […] Alternatively, a compound is selective when its binding affinity is greater for its desired target (e.g., beta-secretase) versus a secondary target (e.g., catD). Accordingly, methods of treatment include administering selective compounds of formula (I) having a lower IC50 value for inhibiting beta-secretase, or greater binding affinity for beta-secretase, than for other aspartyl proteases such as catD, catE, HIV protease, or renin. A selective compound is also capable of producing a higher ratio of desired effects to adverse effects, resulting in a safer method of treatment.
The compounds of formula (I) can be selective for beta-secretase versus catD. […] Selectivity is reported as the ratio of IC50(catD):IC50(BACE).
In the following examples, each value is an average of four experimental runs and multiple values for one compound indicate that more than one experiment was conducted.

Where [7] appears, read: 100 mg/kg, cortex, inhibition of total A-beta vs vehicle control.
[8] abbreviates: 100 mg/kg, plasma, inhibition of total A-beta vs vehicle control.

Chain of BACE (P56817 46-501): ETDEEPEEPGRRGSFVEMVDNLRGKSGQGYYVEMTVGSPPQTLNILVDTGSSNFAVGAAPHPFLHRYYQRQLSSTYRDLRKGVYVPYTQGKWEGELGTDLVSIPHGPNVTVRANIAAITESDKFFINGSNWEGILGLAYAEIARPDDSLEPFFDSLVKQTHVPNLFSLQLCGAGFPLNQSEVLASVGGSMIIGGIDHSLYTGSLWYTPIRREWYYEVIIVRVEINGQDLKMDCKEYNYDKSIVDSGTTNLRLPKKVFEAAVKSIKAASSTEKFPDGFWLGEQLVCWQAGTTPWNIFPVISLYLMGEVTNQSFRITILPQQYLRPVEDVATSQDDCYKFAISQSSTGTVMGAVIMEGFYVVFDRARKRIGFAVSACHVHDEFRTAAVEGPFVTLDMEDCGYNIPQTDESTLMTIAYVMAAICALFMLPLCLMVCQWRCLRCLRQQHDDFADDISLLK

For the molecule `CC(C)(C)Cc1ccc2c(c1)C(NCC(O)C(Cc1cc(F)cc(F)c1)NC(=O)CF)CCC2` (stereo not drawn) [Example 91.3, N-{1-(3,5-Difluoro-benzyl)-3-[7-(2,2-dimethyl-propyl)-1,2,3,4-tetrahydro-naphthalen-1-ylamino]-2-hydroxy-propyl}-2-fluoro-acetamide], the “Efficacy (% Inhibition, 100 mg/kg) cortex” value in data set [1] (setting [7]) was 14%. Moreover, the “Efficacy (% Inhibition, 100 mg/kg) plasma” value in data set [1] (setting [8]) was found to be 23%.
For the molecule `CCc1cc(CC(C)(C)C)cc2c1CCCC2NCC(O)C(Cc1cc(F)cc(F)c1)NC(C)=O` (single isomer, unassigned) [91.2 Diastereomer A], the “Efficacy (% Inhibition, 100 mg/kg) cortex” value in data set [1] (setting [7]) worked out at 44%. The “Efficacy (% Inhibition, 100 mg/kg) plasma” value in data set [1] (setting [8]) is on record as 57%.
Regarding `CCc1cc(CC(C)(C)C)cc2c1CCCC2NCC(O)C(Cc1cc(F)cc(F)c1)NC(C)=O` (single isomer, unassigned) [91.8 Diastereomer A], the results for the EC50 in data set [2] and in data set [3] were 12 nM and 32 nM, respectively. The molecule further came in with a bioavailability in data set [4] of 23.3%.
For `CC(=O)NC(Cc1cc(F)cc(F)c1)C(O)CNC1CCNc2ccc(CC(C)(C)C)cc21` (single isomer, unassigned) [91.10 Diastereomer B], the values for the EC50 in data set [2] and in data set [3] were 190 nM and 13 nM, respectively. For the same molecule, the bioavailability in data set [4] was 5%.
Consider `CCc1ccc2c(c1)C(NCC(O)C(Cc1cc(F)cc(F)c1)NC(C)=O)CCC2` (single isomer, unassigned) [91.5 Diastereomer A], for which the “Efficacy (% Inhibition, 100 mg/kg) cortex” value in data set [1] (setting [7]) is listed as 35%. Besides, the “Efficacy (% Inhibition, 100 mg/kg) plasma” value in data set [1] (setting [8]) was 44%.
Regarding `CC(C)(C)NC(=O)[C@@H]1CN(Cc2cccnc2)CCN1C[C@@H](O)C[C@@H](Cc1ccccc1)C(=O)N[C@H]1c2ccccc2C[C@H]1O` [Indinavir], in data set [5], the concentration at 5 min worked out at 165 nM and the concentration at 60 min was 11 nM.
As to `CC(=O)NC(Cc1cc(F)cc(F)c1)C(O)CNC1CCNc2ccc(CC(C)(C)C)cc21` (single isomer, unassigned) [91.4 Diastereomer B], the “Efficacy (% Inhibition, 100 mg/kg) cortex” value in data set [1] (setting [7]) is recorded as 18%. Also, the “Efficacy (% Inhibition, 100 mg/kg) plasma” value in data set [1] (setting [8]) stood at 59%.
On to `CC(=O)NC(Cc1cc(F)cc(F)c1)C(O)CNC1c2cc(CC(C)(C)C)ccc2CCC1CO` (stereo not drawn) [Example 91.6, N-{1-(3,5-Difluoro-benzyl)-3-[7-(2,2-dimethyl-propyl)-2-hydroxymethyl-1,2,3,4-tetrahydro-naphthalen-1-ylamino]-2-hydroxy-propyl}-acetamide], for which, in data set [6], the “Selectivity IC50 catD/ IC50 BACE” value is given as 4.4.
The molecule `CCc1ccc2c(c1)C(NCC(O)C(Cc1cc(F)cc(F)c1)NC(C)=O)CCC2` (stereo not drawn) [Example 91.11, N-[1-(3,5-Difluoro-benzyl)-3-(7-ethyl-1,2,3,4-tetrahydro-naphthalen-1-ylamino)-2-hydroxy-propyl]-acetamide] displayed an EC50 in data set [2] of 210 nM. The molecule further registered a bioavailability in data set [4] of 14.3%.
`CC(=O)NC(Cc1cc(F)cc(F)c1)C(O)CNC1CCCc2ccc(CC(C)(C)C)cc21` (stereo not drawn) [Example 91.1, N-{1-(3,5-Difluoro-benzyl)-3-[7-(2,2-dimethyl-propyl)-1,2,3,4-tetrahydro-naphthalen-1-ylamino]-2-hydroxy-propyl}-acetamide]: in data set [1] (rat, in vivo), the “Efficacy (% Inhibition, 100 mg/kg) cortex” value came out at 47% and the “Efficacy (% Inhibition, 100 mg/kg) plasma” value came to 63%. This molecule also returned an EC50 in data set [2] of 9 nM. This molecule had a bioavailability in data set [4] of 15%.
With `CCc1ccc2c(c1)C(NCC(O)C(Cc1cc(F)cc(F)c1)NC(C)=O)CCN2` (stereo not drawn) [Example 91.7, N-[1-(3,5-Difluoro-benzyl)-3-(6-ethyl-1,2,3,4-tetrahydro-quinolin-4-ylamino)-2-hydroxy-propyl]-acetamide], the “Selectivity IC50 catD/ IC50 BACE” value in data set [6] was determined as 2.1.
